Assay results: patent US12187742B2 (XRAD Therapeutics, Inc., priority 2018, dated 2025)
Where a name gives a salt, the structure may show the parent alone.

The compounds below were run against ATM (Homo sapiens (Human), UniProt Q13315) (assay: ATM in Cell Western Assay (pKAP1 in etoposide-treated MCF-7 cells)). Conditions: MCF-7 cells, etoposide 100 μM, 1 hr, pKAP1 readout.
ATM, sequence (Q13315 whole entry): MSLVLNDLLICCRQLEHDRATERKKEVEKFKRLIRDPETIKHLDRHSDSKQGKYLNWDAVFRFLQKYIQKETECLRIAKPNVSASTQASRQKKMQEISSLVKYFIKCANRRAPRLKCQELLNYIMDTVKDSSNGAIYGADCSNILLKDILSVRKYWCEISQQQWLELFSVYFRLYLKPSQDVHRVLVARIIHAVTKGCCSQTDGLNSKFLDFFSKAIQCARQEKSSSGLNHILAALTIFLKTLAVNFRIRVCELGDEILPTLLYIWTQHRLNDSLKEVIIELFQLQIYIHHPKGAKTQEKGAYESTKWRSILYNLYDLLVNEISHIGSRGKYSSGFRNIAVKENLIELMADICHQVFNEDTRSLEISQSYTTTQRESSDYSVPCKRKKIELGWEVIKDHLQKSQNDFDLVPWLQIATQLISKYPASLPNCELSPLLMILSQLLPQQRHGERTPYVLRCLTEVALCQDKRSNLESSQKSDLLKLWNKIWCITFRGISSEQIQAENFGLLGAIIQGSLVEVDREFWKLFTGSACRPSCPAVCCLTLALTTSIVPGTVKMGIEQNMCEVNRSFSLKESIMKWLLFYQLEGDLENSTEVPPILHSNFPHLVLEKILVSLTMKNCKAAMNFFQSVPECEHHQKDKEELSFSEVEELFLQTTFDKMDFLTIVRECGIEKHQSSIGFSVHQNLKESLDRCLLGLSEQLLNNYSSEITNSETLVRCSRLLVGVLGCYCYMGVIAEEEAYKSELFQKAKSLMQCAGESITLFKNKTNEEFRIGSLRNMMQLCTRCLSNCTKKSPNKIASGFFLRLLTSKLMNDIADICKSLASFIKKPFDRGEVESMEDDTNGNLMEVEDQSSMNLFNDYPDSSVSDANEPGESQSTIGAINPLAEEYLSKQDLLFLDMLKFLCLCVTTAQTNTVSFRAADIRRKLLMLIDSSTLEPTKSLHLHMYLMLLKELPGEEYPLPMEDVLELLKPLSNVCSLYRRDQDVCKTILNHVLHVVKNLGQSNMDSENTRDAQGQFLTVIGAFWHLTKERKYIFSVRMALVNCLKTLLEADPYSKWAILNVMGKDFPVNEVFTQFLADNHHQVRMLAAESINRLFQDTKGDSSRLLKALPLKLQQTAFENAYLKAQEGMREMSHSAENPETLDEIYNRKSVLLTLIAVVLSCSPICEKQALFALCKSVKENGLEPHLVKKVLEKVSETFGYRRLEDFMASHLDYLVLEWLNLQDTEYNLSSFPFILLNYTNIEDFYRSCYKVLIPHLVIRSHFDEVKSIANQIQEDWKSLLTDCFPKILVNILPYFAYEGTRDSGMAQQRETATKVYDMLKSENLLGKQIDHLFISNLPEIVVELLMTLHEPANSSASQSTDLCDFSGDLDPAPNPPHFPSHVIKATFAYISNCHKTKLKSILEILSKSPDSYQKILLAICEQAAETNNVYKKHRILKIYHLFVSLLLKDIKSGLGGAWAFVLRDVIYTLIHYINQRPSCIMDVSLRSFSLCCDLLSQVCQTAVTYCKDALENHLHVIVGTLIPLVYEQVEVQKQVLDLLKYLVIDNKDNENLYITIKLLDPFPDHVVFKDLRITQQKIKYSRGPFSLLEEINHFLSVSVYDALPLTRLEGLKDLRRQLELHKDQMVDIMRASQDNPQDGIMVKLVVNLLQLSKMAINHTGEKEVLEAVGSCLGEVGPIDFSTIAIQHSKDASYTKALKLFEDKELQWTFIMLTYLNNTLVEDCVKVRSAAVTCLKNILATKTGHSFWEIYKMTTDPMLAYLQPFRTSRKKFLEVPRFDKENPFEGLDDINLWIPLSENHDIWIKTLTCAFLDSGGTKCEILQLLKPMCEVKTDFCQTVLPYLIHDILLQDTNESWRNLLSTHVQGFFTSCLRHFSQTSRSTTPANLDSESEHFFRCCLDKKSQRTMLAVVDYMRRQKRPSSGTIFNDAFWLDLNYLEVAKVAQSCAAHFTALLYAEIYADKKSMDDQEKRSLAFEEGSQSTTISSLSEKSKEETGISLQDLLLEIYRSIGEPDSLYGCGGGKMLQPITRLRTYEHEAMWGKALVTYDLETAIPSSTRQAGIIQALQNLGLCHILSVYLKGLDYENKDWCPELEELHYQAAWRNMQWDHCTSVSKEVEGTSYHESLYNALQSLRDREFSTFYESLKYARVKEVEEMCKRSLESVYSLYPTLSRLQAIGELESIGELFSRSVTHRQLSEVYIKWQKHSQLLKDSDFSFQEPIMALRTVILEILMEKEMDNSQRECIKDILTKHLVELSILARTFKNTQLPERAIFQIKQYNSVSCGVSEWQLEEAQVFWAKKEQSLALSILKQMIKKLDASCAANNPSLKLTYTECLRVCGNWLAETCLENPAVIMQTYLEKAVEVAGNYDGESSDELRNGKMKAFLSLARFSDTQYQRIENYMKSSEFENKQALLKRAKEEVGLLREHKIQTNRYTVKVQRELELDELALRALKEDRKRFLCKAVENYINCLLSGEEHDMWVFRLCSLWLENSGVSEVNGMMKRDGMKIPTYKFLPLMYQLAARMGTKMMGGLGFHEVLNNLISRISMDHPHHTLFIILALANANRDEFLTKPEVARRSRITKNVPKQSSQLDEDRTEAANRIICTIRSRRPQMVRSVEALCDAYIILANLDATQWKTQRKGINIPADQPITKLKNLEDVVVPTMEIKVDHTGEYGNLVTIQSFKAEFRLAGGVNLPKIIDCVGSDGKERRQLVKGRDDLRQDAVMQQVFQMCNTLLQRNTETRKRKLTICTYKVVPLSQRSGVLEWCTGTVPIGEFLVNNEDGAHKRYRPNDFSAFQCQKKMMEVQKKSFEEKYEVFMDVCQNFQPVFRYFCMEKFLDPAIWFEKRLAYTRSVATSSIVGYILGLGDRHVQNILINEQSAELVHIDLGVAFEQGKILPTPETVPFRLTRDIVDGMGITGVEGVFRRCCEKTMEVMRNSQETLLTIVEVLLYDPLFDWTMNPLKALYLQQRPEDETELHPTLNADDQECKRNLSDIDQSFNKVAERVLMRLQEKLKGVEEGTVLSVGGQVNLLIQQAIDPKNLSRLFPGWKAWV
Type: cell-based
Experimental: Assay of Compounds ATM and DNA-PK Inhibition
ATM in Cell Western Assay:
Next day, add corresponding concentration of compounds using pin tool (Echo 550), the final top concentration is 1 μM, 3-fold series dilution, total 10 doses. Then add etoposide (Sigma, #E1383) to a final concentration of 100 μM. Incubate at 37° C. for 1 hr. Fix cells by adding 25 μL of fixing solution (8% paraformaldehyde) for 20 minutes at ambient temperature. Permeabilize cells for 5 washes with 1×PBS (phosphate buffered saline) containing 0.1% Triton X-100; each wash is for 5 minutes. […] The next day, wash the plate 5 times with 1×PBST (1×PBS containing 0.1% Tween-20). […] Wash the cells for 5 times with 1×PBST (1×PBS containing 0.1% Tween-20) at ambient temperature, using gentle shaking in the dark. After the last wash
remove wash solution, turn plate upside down onto a thin paper towel and centrifuge at 1000 rpm for 1 min to absorb all wash buffer. Clean the bottom of plate with moist lint free paper. Scan plate immediately using ODYSSEY CLx (LI-COR) for the best results.
`CN1C(=O)C2(CCC2)c2c1cnc1ccc(-c3cnc(N4CCS(=N)(=O)CC4)c(NS(=O)(=O)c4ccccc4)c3)cc21` (racemic) [Example 138, rac-N-(2-(1-Imino-1-oxido-1λ^6-thiomorpholino)-5-(3′-methyl-2′-oxo-2′,3′-dihydrospiro[cyclobutane-1,1′-pyrrolo[2,3-c]quinolin]-8′-yl)pyridin-3-yl)benzenesulfonamide hydrochloride] was tested, and the IC50 was over 0.1 µM.
Compound `COc1ncc(-c2ccc3ncc4c(c3c2)C2(CCC2)C(=O)N4C)cc1S(=N)(=O)c1ccccc1` (racemic) [Example 151, rac-8′-(6-Methoxy-5-(phenylsulfonimidoyl)pyridin-3-yl)-3′-methylspiro[cyclobutane-1,1′-pyrrolo[2,3-c]quinolin]-2′(3′H)-one] has an IC50 of over 0.1 µM.
`CN(C)CCCOc1ncc(-c2ccc3ncc4c(c3c2)C2(CCCC2)C(=O)N4C)cc1NC(=O)c1ccccc1` [Example 7] was tested, and the IC50 was over 0.1 µM.
Work on `COc1ncc(-c2ccc3ncc4c(c3c2)C2(CC2)C(=O)N4Cc2cn[nH]c2)cc1NS(=O)(=O)c1ccccc1` [Example 11, N-(5-(3′-((1H-Pyrazol-4-yl)methyl)-2′-oxo-2′,3′-dihydrospiro[cyclopropane-1,1′-pyrrolo[2,3-c]quinolin]-8′-yl)-2-methoxypyridin-3-yl) benzenesulfonamide] yielded an IC50 of over 0.1 µM.
`COc1ncc(-c2ccc3ncc(Nc4ccn(C)n4)c(=O)n3c2)cc1NS(=O)(=O)c1ccccc1` [Example 16, N-(2-Methoxy-5-(3-((1-methyl-1H-pyrazol-3-yl)amino)-4-oxo-4H-pyrido[1,2-a]pyrimidin-7-yl)pyridin-3-yl)benzenesulfonamide] showed an IC50 of over 0.1 µM.
Work on `COc1ncc(-c2ccc3ncc4c(c3c2)C2(CC2)C(=O)N4CC2COC2)cc1NS(=O)(=O)c1ccccc1` [Example 17, N-(2-Methoxy-5-(3 (oxetan-3-ylmethyl)-2′-oxo-2′,3′-dihydrospiro[cyclopropane-1,1′-pyrrolo[2,3-c]quinolin]-8′-yl)pyridin-3-yl)benzenesulfonamide] yielded an IC50 of over 0.1 µM.
`COc1ncc(-c2ccc3ncc4c(c3c2)C2(CC2)C(=O)N4C)cc1NS(=O)(=O)c1cccc(C(C)O)c1` (stereo not drawn) [Example 18, 3-(1-Hydroxyethyl)-N-(2-methoxy-5-(3′-methyl-2′-oxo-2′,3′-dihydrospiro[cyclopropane-1,1′-pyrrolo[2,3-c]quinolin]-8′-yl)pyridin-3-yl)benzenesulfonamide] was tested, and the IC50 was 0.001 to 0.1 µM.
With `CN1C(=O)C2(CC2)c2c1cnc1ccc(-c3cnc4ccccc4c3)cc21` [Example 20, 3′-Methyl-8′-(quinolin-3-yl)spiro[cyclopropane-1,1′-pyrrolo[2,3-c]quinolin]-2′(3′-H)-one] the IC50 was over 0.1 µM.
`CN1C(=O)C(C)(c2ccncc2)c2c1cnc1ccc(-c3cnc(Cl)c(NS(=O)(=O)c4ccccc4)c3)cc21` (stereo not drawn) [Example 23, N-(2-Chloro-5-(1,3-dimethyl-2-oxo-1-(pyridin-4-yl)-2′,3′-dihydro-1H-pyrrolo[2,3-c]quinolin-8-yl)pyridin-3-yl)benzenesulfonamide] gave an IC50 of over 0.1 µM.
`CN1C(=O)C2(CC2)c2c1cnc1ccc(-c3cncc(C(C)(C)O)c3)cc21` [Example 25, 8′-(5-(2-Hydroxypropan-2-yl)pyridin-3-yl)-3 methylspiro[cyclopropane-1,1′-pyrrolo[2,3-c]quinolin]-2′(3′-H)-one] showed an IC50 of over 0.1 µM.
Work on `COc1ncc(-c2ccc3ncc4c(c3c2)C2(CC2)C(=O)N4C)cc1C(C)(C)O` [Example 26, 8′-(5-(2-Hydroxypropan-2-yl)-6-methoxypyridin-3-yl)-3′-methylspiro [cyclopropane-1,1′-pyrrolo[2,3-c]quinolin]-2′(3′-H)-one] yielded an IC50 of over 0.1 µM.
In the case of `COc1ncc(-c2ccc3ncc4c(c3c2)C2(CC2)C(=O)N4CCC#N)cc1NS(=O)(=O)c1ccccc1` [Example 27, N-(5-(3′-(2-Cyanoethyl)-2′-oxo-2′,3′-dihydrospiro[cyclopropane-1,1′-pyrrolo[2,3-c]quinolin]-8′-yl)-2-methoxypyridin-3-yl)benzenesulfonamide], the IC50 is reported as over 0.1 µM.
`CN1C(=O)C2(CC2)c2c1cnc1ccc(-c3cnc(Cl)c(C(C)(C)O)c3)cc21` [Example 28, 8′-(6-Chloro-5-(2-hydroxypropan-2-yl)pyridin-3-yl)-3′-methylspiro[cyclopropane-1,1′-pyrrolo[2,3-c]quinolin]-2′(3′-H)-one] showed an IC50 of over 0.1 µM.
`CC(C)N1C(=O)C2(CC2)c2c1cnc1ccc(-c3cnc(OCCCN(C)C)c(NS(=O)(=O)c4ccccc4)c3)cc21` [Example 31, N-(2-(3-(Dimethylamino)propoxy)-5-(3′-isopropyl-2′-oxo-2′,3′-dihydrospiro [cyclopropane-1,1′-pyrrolo[2,3-c]quinolin]-8′-yl)pyridin-3-yl) benzenesulfonamide] gave an IC50 of over 0.1 µM.
Compound `CC(C)Nc1cc(-c2ccc3ncc4c(c3c2)C2(CC2)C(=O)N4C)cnc1OCCCN(C)C` [Example 34, 8′-(6-(3-(Dimethylamino)propoxy)-5-(isopropylamino)pyridin-3-yl)-3′-methylspiro[cyclopropane-1,1′-pyrrolo[2,3-c]quinolin]-2′(3′-H)-one] has an IC50 of over 0.1 µM.
For `COc1ncc(-c2ccc3ncc4c(c3c2)C2(CC2)C(=O)N4C)cc1S(=O)(=O)c1ccccc1` [Example 36], the IC50 was over 0.1 µM.
`CC(C)Oc1cc(-c2ccc3ncc4c(c3c2)C2(CC2)C(=O)N4C)cnc1OCCCN(C)C` [Example 38, 8′-(6-(3-(Dimethylamino)propoxy)-5-isopropoxypyridin-3-yl)-3′-methylspiro[cyclopropane-1,1′-pyrrolo[2,3-c]quinolin]-2′(3′-H)-one] showed an IC50 of over 0.1 µM.
Compound `CN1C(=O)C2(CC2)c2c1cnc1ccc(-c3ccc4nccnc4c3)cc21` [Example 39, 3′-Methyl-8′-(quinoxalin-6-yl)spiro[cyclopropane-1,1′-pyrrolo[2,3-c]quinolin]-2′(3′-H)-one] has an IC50 of over 0.1 µM.
In the case of `CN1C(=O)C2(CC2)c2c1cnc1ccc(-c3ccc4[nH]c(=O)ccc4c3)cc21` [Example 40], the IC50 is reported as over 0.1 µM.
Compound `CN1C(=O)C2(CC2)c2c1cnc1ccc(-c3ccc4nc(Cl)ccc4c3)cc21` [Example 41, 8′-(2-Chloroquinolin-6-yl)-3′-methylspiro [cyclopropane-1,1′-pyrrolo [2,3-c]quinolin]-2′(3′-H)-one] has an IC50 of over 0.1 µM.
`COc1ccc2cc(-c3ccc4ncc5c(c4c3)C3(CC3)C(=O)N5C)ccc2n1` [Example 44, 8′-(2-Methoxyquinolin-6-yl)-3′-methylspiro [cyclopropane-1,1′-pyrrolo[2,3-c]quinolin]-2′(3′-H)-one] was tested, and the IC50 was over 0.1 µM.
`CN1C(=O)C2(CC2)c2c1cnc1ccc(-c3ccc4c(ccc(=O)n4C)c3)cc21` [Example 45, 3′-Methyl-8′-(1-methyl-2-oxo-1,2-dihydroquinolin-6-yl)spiro[cyclopropane-1,1′-pyrrolo[2,3-c]quinolin]-2′(3′-H)-one] was tested, and the IC50 was over 0.1 µM.
With `CN1C(=O)C2(CC2)c2c1cnc1ccc(-c3cccc4[nH]ncc34)cc21` [Example 50, 8′-(1H-indazol-4-yl)-3′-methylspiro[cyclopropane-1,1′-pyrrolo[2,3-c]quinolin]-2′(3′-H)-one] the IC50 was over 0.1 µM.
`CN1C(=O)C2(CC2)c2c1cnc1ccc(-c3cncnc3)cc21` [Example 51, 3′-Methyl-8′-(pyrimidin-5-yl)spiro[cyclopropane-1,1′-pyrrolo [2,3-c]quinolin]-2′(3′-H)-one] showed an IC50 of over 0.1 µM.
For `CN(C)CCCOc1ncc(-c2ccc3ncc4c(c3c2)C2(CC2)C(=O)N4C)cc1C(N)=O` [Example 52, 2-(3-(Dimethylamino)propoxy)-5-(3′-methyl-2′-oxo-2′,3′-dihydrospiro[cyclopropane-1,1′-pyrrolo[2,3-c]quinolin]-8′-yl)nicotinamide], the IC50 was over 0.1 µM.
With `CN(C)CCCOc1ncc(-c2ccc3ncc4c(c3c2)C2(CC2)C(=O)N4C)cc1Cl` [Example 55, 8′-(5-Chloro-6-(3-(dimethylamino)propoxy)pyridin-3-yl)-3 methylspiro[cyclopropane-1,1′-pyrrolo[2,3-c]quinolin]-2′(3′-H)-one] the IC50 was over 0.1 µM.
Work on `CN1C(=O)C2(CC2)c2c1cnc1ccc(-c3cnc(OCCCN4CCCC4)c(NS(=O)(=O)C4CC4)c3)cc21` [Example 60, N-(5-(3-Methyl-2′-oxo-2′,3′-dihydrospiro [cyclopropane-1,1′-pyrrolo[2,3-c]quinolin]-8′-yl)-2-(3-(pyrrolidin-1-yl)propoxy)pyridin-3-yl) cyclopropanesulfonamide] yielded an IC50 of 0.001 to 0.1 µM.
Work on `CN(C)CCCOc1ncc(-c2ccc3ncc4c(c3c2)C2(CC2)C(=O)N4C)cc1-c1ccccc1` [Example 72, 8′-(6-(3-(Dimethylamino)propoxy)-5-phenylpyridin-3-yl)-3′-methylspiro[cyclopropane-1,1′-pyrrolo[2,3-c]quinolin]-2′(3′-H)-one] yielded an IC50 of over 0.1 µM.
`CN(C)CCCOc1ncc(-c2ccc3ncc4c(c3c2)N(C)C2(CC2)C(=O)N4C)cc1NS(=O)(=O)c1ccccc1` [Example 74, N-(5-(1′,4′-Dimethyl-3′-oxo-34′-dihydro-1′H-spiro[cyclopropane-1,2′-pyrazino[2,3-c]quinolin]-9′-yl)-2-(3-(dimethylamino)propoxy)pyridin-3-yl) benzenesulfonamide] was tested, and the IC50 was over 0.1 µM.

Same assay, conditions: pKAP1 in etoposide-treated MCF-7 cells
`CN1C(=O)C2(CCC2)c2c1cnc1ccc(-c3cnc(N4CCC(C)(N5CCCCC5)C4)c(NS(C)(=O)=O)c3)cc21` (racemic) [Example 353, (rac)-N-(5-(3′-Methyl-2′-oxo-2′,3′-dihydrospiro[cyclobutane-1,1′-pyrrolo[2,3-c]quinolin]-8′-yl)-2-(3-methyl-3-(piperidin-1-yl)pyrrolidin-1-yl)pyridin-3-yl)methanesulfonamide hydrochloride] gave an IC50 of over 0.1 µM.
